Entries after “also recorded” stand apart in the source; their conditions may differ.
Legend:
Sestrin1 = molecular target: T1, Sestrin1 (Homo sapiens, UniProt Q9Y6P5); assay: Cellular thermal shift assay (CETSA), intracellular Sestrin1 in HEK-293T cells; assay type: cell-based; details: 30 min, leucine-starved HEK293T cells, read-out: increase of melting temperature of intracellular Sestrin1
T1 sequence (Q9Y6P5 67-492 limits assumed): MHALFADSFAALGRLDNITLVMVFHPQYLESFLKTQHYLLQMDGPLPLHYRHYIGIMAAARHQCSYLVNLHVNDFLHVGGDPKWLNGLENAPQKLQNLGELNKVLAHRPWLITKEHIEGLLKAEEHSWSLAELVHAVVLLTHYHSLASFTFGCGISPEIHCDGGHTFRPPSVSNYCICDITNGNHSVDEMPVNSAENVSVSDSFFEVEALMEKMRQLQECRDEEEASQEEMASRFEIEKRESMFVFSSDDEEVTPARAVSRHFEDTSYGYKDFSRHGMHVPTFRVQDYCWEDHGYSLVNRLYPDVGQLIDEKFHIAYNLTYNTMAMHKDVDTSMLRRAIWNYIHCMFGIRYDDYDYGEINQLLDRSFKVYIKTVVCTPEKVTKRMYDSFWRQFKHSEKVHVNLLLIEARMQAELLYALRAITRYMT
Experimental: Expression of flag-WDR24 allows for immunoprecipitation of the Sestrin2/GATOR2 complex from amino acid-starved cells with an anti-flag antibody. […] Finally, to determine whether Sestrins and the GATOR pathway are required for NV-5138 activity, HEK-293T cells null for all three Sestrin isoforms or the GATOR1 component Nprl3 were obtained.
CETSA was performed as previously described. […] Cells were then collected, centrifuged for 3 min at 300 g at room-temperature (RT), washed with PBS, centrifuged again, and finally resuspended in 1 ml of RT PBS containing EDTA-free protease-inhibitor tablets (Roche). 100 µl of each cell suspension was heated at the noted temperature for 3 min, samples were then placed on the bench at RT for 3 min before being flash-frozen in liquid nitrogen. To lyse the cells, samples were put through two cycles of freeze-thawing followed by centrifugation at 20,000 g for 20 min at 4 °C. 80 µl of the resulting supernatant was denatured and, resolved by SDS-PAGE. Membranes were imaged using the LI-COR imaging system. Antibodies used are listed in Supplementary Information.

HeLa cells = assay: 14C-leucine protein incorporation assay in HeLa cells; assay type: cell-based, human; details: for effect on incorporation of 14C-leucine into precipitated proteins: 30 min labeling, CHX 10 ug/ml
Experimental: Since NV-5138 is an amino acid, we performed two different experiments to rule out any potential liabilities that could arise from the incorporation of NV-5138 into proteins. We first determined whether NV-5138 substitutes for any branched-chain amino acid or methionine into newly synthesized proteins using liquid chromatography followed by tandem mass spectroscopy (LC-MS/MS). NV-5138 (100 µM) or vehicle was incubated with serum and leucine-starved 293T cells for 6 hours followed by proteomic analysis by mass spectrometry.
After incubation, cells were harvested and lysed in Tris/HCl 10 mM pH 7.4 plus 1% NP40. Lysate were mixed with water and 20% trichloroacetic acid (1:1:2) and incubated on ice for 2 h to precipitate the protein. Proteins were collected by centrifugation, solubilized in NaOH, placed in scintillation fluid and read on a Wallac Microbeta Trilux 2450 with a 2-min count. Scintillation values were normalized as the percentage of the counts from the DMSO-treated wells.

BCAT1 = molecular target: T2, BCAT1 (Homo sapiens, UniProt P54687); assay: BCAT enzymatic assay (substrate test), BCAT1; assay type: biochemical; details: NADH oxidation at 340 nm; tested up to 1.5 mM
T2 construct: purchased OriGene TP319229
T2 sequence (P54687 1-386): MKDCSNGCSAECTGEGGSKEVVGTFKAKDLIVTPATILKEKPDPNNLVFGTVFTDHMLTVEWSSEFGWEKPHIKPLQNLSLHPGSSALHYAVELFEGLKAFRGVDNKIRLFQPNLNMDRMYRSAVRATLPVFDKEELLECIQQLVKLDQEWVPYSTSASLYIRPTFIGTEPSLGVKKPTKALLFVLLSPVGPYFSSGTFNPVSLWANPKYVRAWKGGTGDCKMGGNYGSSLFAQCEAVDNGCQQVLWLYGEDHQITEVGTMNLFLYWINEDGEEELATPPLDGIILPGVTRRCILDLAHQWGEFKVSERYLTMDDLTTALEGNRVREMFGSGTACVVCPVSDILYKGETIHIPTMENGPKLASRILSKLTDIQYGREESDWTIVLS
Experimental: BCAT exists in two isoforms, mitochondrial BCAT2 which is ubiquitously expressed, and cytosolic BCAT1, which is predominantly expressed in embryonic tissues and the adult brain. To determine whether NV-5138 is a substrate for BCAT isoforms, we established an in vitro enzymatic assay using purified BCAT1 and BCAT2 and performed the assay in the forward direction as described. […] The disappearance of absorbance at 340 nm due to NADH oxidation is measured continuously over time.
The assay buffer was dispensed into a 96-well plate and brought up to 37 °C for 10 min before adding BCAT1 or BCAT2 (72 ng) in 0.1 M potassium phosphate buffer. Absorbance at 340 nm was then read every minute for 30 min at RT using an Envision plate reader. Source of each reagents used can be found in Supplementary Information.

mTORC1 = mTORC1 activation in rat peripheral tissues after oral dosing (phosphorylated S6 S240/244 immunoblot); assay type: in vivo; details: 1 h after single oral dose; NV-5138 160 mg/kg, leucine 500 mg/kg
Experimental: After compound administration, animals were sacrificed by decapitation using a guillotine, immediately Specific regions of the brain were quickly microdissected, tissues collected, and flash frozen in liquid nitrogen. Peripheral tissues and all brain were homogenized using MP homogenizer in Lysis Buffer (Cell lysis buffer: 1% Triton X-100, 50 mM HEPES pH 7.4, 100 mM NaCl, 2 mM EDTA, 10 mM Beta-glycerophosphate, 10 mM Sodium pyrophosphate, and 1 protease inhibitor) at 4 °C. Synaptic proteins and mTORC1 analyses in each brain region were conducted on crude synaptoneurosome preparations as previously described. Equal amounts of total protein from each sample were denatured and, resolved by SDS-PAGE. Membranes were imaged using the LI-COR imaging system. Proteins levels are normalized to tubulin or GAPDH levels and further normalized to vehicle treated rats for each tissue. Antibodies used are listed in Supplementary Information.

Structure (SMILES)	ΔTm at 300 µM (Sestrin1)	effect on incorporation of 14C-leucine into precipitated proteins (HeLa cells)	transamination by BCAT1 (BCAT1)	mTORC1 activation in kidney, heart, tibialis anterior muscle, testes, epididymal fat (mTORC1)	mTORC1 activation in liver (mTORC1)	mTORC1 activation in lung, spleen, gastrocnemius muscle, eye, thymus (mTORC1)	effect on 14C-leucine incorporation at high doses (HeLa cells; high doses)
CC(C)C[C@H](N)C(=O)O [Leucine, L-leucine, reference compound]	~2 °C	blocked incorporation	transaminated by BCAT1 and BCAT2	significant activation	significant activation	little to no activation	
CC(C)(C[C@H](N)C(=O)O)C(F)F [NV-5138, (S)-2-amino-5,5-difluoro-4,4-dimethylpentanoic acid]	~2 °C	did not show any competition	no decrease in absorption at 340 nm; also recorded: did not observe any transamination	significant activation	trend	little to no activation	appeared to increase
